The subject of assay [1] is Enterococcus faecium. Description: Minimum inhibitory concentration against vancomycin-sensitive Enterococcus faecium in the presence of 30% bovine serum(n=1). It counts as functional.
Assay [2] concerns Staphylococcus haemolyticus. Description: Minimum inhibitory concentration against Staphylococcus haemolyticus in the presence of 30% bovine serum. It counts as functional.
Assay [3] relates to Staphylococcus epidermidis. Description: Minimum inhibitory concentration against methicillin-sensitive Staphylococcus epidermidis in the presence of 30% bovine serum. In kind it is functional.
The subject of assay [4] is Enterococcus faecalis. The assay is described as follows: Minimum inhibitory concentration against vancomycin-A Enterococcus faecalis in the presence of 30% bovine serum (n=4) (range = 8-64mg/L). In kind it is functional.
Assay [5] deals with Staphylococcus aureus. The assay is described as follows: Minimum inhibitory concentration against methicillin-resistant Staphylococcus aureus.
The test system of assay [6] is Enterococcus faecium. The assay is described as follows: Minimum inhibitory concentration against vancomycin-A Enterococcus faecium in the presence of 30% bovine serum (n=1) (range = 32>128mg/L). It counts as functional.
In assay [7] the test system is Enterococcus faecalis. Description: Minimum inhibitory concentration against vancomycin-sensitive Enterococcus faecalis in the presence of 30% bovine serum(n=3)(range = 0.125-0.25mg/l). It counts as functional.
Assay [8] concerns Staphylococcus aureus. Description: Minimum inhibitory concentration against methicillin-sensitive Staphylococcus aureus.
The subject of assay [9] is Staphylococcus epidermidis. The assay is described as follows: Minimum inhibitory concentration against methicillin-resistant Staphylococcus epidermidis in the presence of 30% bovine serum. In kind it is functional.
The test system of assay [10] is Enterococcus faecalis. Description: Minimum inhibitory concentration against vancomycin-A Enterococcus faecalis in the presence of 30% bovine serum (n=4) (range = 1-16mg/L). It counts as functional.
Assay [11] has as its system Enterococcus faecalis. Description: Minimum inhibitory concentration against vancomycin-sensitive Enterococcus faecalis in the presence of 30% bovine serum (n=3) (range = 0.25-0.5mg/l). It counts as functional.
In assay [12] the test system is Enterococcus faecium. Description: Minimum inhibitory concentration against vancomycin-A Enterococcus faecium in the presence of 30% bovine serum (n=1) (range = 4>128mg/L). It counts as functional.
For assay [13], the system named is Enterococcus faecalis. Description: Minimum inhibitory concentration against vancomycin-A Enterococcus faecalis (n=4) (Range = 1 - 8 mg/L).
Assay [14] relates to Enterococcus faecium. Description: Minimum inhibitory concentration against vancomycin-A Enterococcus faecium in the presence of 30% bovine serum (n=1) (range = 2>128). In kind it is functional.
Assay [15] concerns Staphylococcus aureus. The assay is described as follows: Minimum inhibitory concentration against methicillin-sensitive Staphylococcus aureus without serum.
Assay [16] deals with Enterococcus faecium. The assay is described as follows: Minimum inhibitory concentration against vancomycin-sensitive Enterococcus faecium in the presence of 30% bovine serum(n=1) (range = 1-8 mg/l). It counts as functional.
The subject of assay [17] is Enterococcus faecalis. The assay is described as follows: Minimum inhibitory concentration against vancomycin-sensitive Enterococcus faecalis in the presence of 30% bovine serum(n=3)(range = 0.125-0.5mg/l). It counts as functional.
Assay [18] has as its system Enterococcus faecalis. The assay is described as follows: Minimum inhibitory concentration against vancomycin-A Enterococcus faecalis in the presence of 30% bovine serum(n=4) (range = 1-16mg/L). It counts as functional.
Assay [19] concerns Enterococcus faecium. Description: Minimum inhibitory concentration against vancomycin-A Enterococcus faecium in the presence of 30% bovine serum (n=1) (range = 2-32mg/l). It counts as functional.
Assay [20] has as its system Enterococcus faecalis. The assay is described as follows: Minimum inhibitory concentration against vancomycin-sensitive Enterococcus faecalis in the presence of 30% bovine serum (n=3). It counts as functional.

≈ marks a conversion by molar mass, not a printed value.

Take `CCCCCCCCOc1ccc(CNC2[C@H](Oc3c4cc5cc3Oc3ccc(cc3Cl)[C@@H](O)C3NC(=O)[C@H](NC(=O)[C@@H]5NC(=O)[C@H]5NC(=O)[C@@H](Cc6ccc(cc6)O4)NC(=O)[C@H](NC)c4ccc(O)c(c4)Oc4cc(O)c(Cl)c5c4)c4ccc(O)c(c4)-c4c(O[C@H]5O[C@H](CO)[C@@H](O)[C@H](O)[C@@H]5O)cc(O)cc4[C@@H](C(=O)O)NC3=O)OC(C(=O)O)C(O)[C@@H]2O)cc1` (stereo not given in full): the MIC with Enterococcus faecium [1] was 0.5 µg/mL; in [2] it was 16 µg/mL; in assay [3], 16 µg/mL; in the assay on Enterococcus faecalis [4], 64 µg/mL; against Staphylococcus aureus [5], 1 µg/mL (≈ 0.565 µM); in the assay on Enterococcus faecium [6], above 128 µg/mL. Further, the MIC turned out to be 0.125 µg/mL with Enterococcus faecalis [7] and 2 µg/mL (≈ 1.13 µM) in the assay on Staphylococcus aureus [8].
Consider `CN(Cc1ccc(-c2ccccc2)cc1)[C@H]1C(=O)N[C@@H]2Cc3ccc(cc3)Oc3cc4cc(c3O[C@@H]3OC(C(=O)O)C(O)[C@H](O)C3NCc3ccc(-c5ccccc5)cc3)Oc3ccc(cc3Cl)[C@@H](O)C3NC(=O)[C@H](NC(=O)[C@@H]4NC(=O)[C@@H](NC2=O)c2cc(cc(O)c2Cl)Oc2cc1ccc2O)c1ccc(O)c(c1)-c1c(O[C@H]2O[C@H](CO)[C@@H](O)[C@H](O)[C@@H]2O)cc(O)cc1[C@@H](C(=O)O)NC3=O` (stereo not given in full), for which the MIC is 4 µg/mL in assay [9]; 0.5 µg/mL with Enterococcus faecium [1]; 16 µg/mL in the assay on Enterococcus faecalis [10]; 0.5 µg/mL in the assay on Enterococcus faecalis [11]; 64 µg/mL in assay [2]; 0.5 µg/mL in assay [3]. For the same molecule, the figures for the MIC in the assay on Staphylococcus aureus [5], with Enterococcus faecium [12] and against Staphylococcus aureus [8] were 0.5 µg/mL (≈ 0.266 µM), above 128 µg/mL and 0.5 µg/mL (≈ 0.266 µM), respectively.
On to `CCCCOc1ccc(CNC2[C@H](Oc3c4cc5cc3Oc3ccc(cc3Cl)[C@@H](O)C3NC(=O)[C@H](NC(=O)[C@@H]5NC(=O)[C@H]5NC(=O)[C@@H](Cc6ccc(cc6)O4)NC(=O)[C@H](N(C)Cc4ccc(OCCCC)cc4)c4ccc(O)c(c4)Oc4cc(O)c(Cl)c5c4)c4ccc(O)c(c4)-c4c(O[C@H]5O[C@H](CO)[C@@H](O)[C@H](O)[C@@H]5O)cc(O)cc4[C@@H](C(=O)O)NC3=O)OC(C(=O)O)C(O)[C@@H]2O)cc1` (stereo not given in full), for which the MIC against Enterococcus faecalis [13] was 8 µg/mL (≈ 4.27 µM); in assay [9] it was 8 µg/mL; in the assay with Enterococcus faecium [14], above 128 µg/mL; in assay [2], 32 µg/mL; in [3], 2 µg/mL; in the assay with Staphylococcus aureus [15], 2 µg/mL (≈ 1.07 µM). Also, the MIC is 1 µg/mL (≈ 0.533 µM) against Staphylococcus aureus [5], 2 µg/mL with Enterococcus faecium [16] and 0.5 µg/mL in the assay with Enterococcus faecalis [17].
As for `CN(C)CCCNC(=O)C1O[C@@H](Oc2c3cc4cc2Oc2ccc(cc2Cl)[C@@H](O)C2NC(=O)[C@H](NC(=O)[C@@H]4NC(=O)[C@H]4NC(=O)[C@@H](Cc5ccc(cc5)O3)NC(=O)[C@H](N(C)Cc3ccc(-c5ccccc5)cc3)c3ccc(O)c(c3)Oc3cc(O)c(Cl)c4c3)c3ccc(O)c(c3)-c3c(O[C@H]4O[C@H](CO)[C@@H](O)[C@H](O)[C@@H]4O)cc(O)cc3[C@@H](C(=O)NCCCN(C)C)NC2=O)C(NCc2ccc(-c3ccccc3)cc2)[C@@H](O)C1O` (stereo not given in full), the MIC in assay [9] worked out at 1 µg/mL; in the assay on Enterococcus faecium [1], 0.5 µg/mL; in assay [2] it was 2 µg/mL; in the assay on Enterococcus faecalis [18], 4 µg/mL; in [3], 0.25 µg/mL; against Staphylococcus aureus [5], 1 µg/mL (≈ 0.488 µM). Besides, the MIC in the assay on Enterococcus faecium [19] came to 32 µg/mL; in the assay with Enterococcus faecalis [20], 0.25 µg/mL; in the assay with Staphylococcus aureus [8], 1 µg/mL (≈ 0.488 µM).

Source of the values: ChEMBL document CHEMBL1142788, “Synthesis and antibacterial activity of alkyl derivatives of the glycopeptide antibiotic A40926 and their amides” (2005).
